Paper PMC7902330, “Pharmacokinetic study of traditional Japanese Kampo medicine shimotsuto used to treat gynecological diseases in rats” (Journal of Natural Medicines, 2021)

Assay: Nontargeted LC–HRMS detection of ingredients in rat plasma after oral administration of each constituent crude drug
Details: n = 2
Experimental: The rats were fasted for 16 h and then orally administered Angelicae Acutilobae Radix, Paeoniae Radix, Rehmanniae Radix, or Cnidii Rhizoma extract powder suspended in distilled water at a dosage of 1 g/10 mL/kg. […] The two sampling points (1 and 10 h) were set to extensively explore both fast- and slow-absorbing ingredients. The blood samples were centrifuged at 1700×g for 15 min at 4 °C to obtain plasma, and the plasma samples were stored at less than − 75 °C until LC–HRMS analysis.
Before LC–HRMS analysis, the plasma samples were deproteinized using methanol as follows: 100 µL of plasma sample was mixed with 700 µL of methanol and then vortexed for 2 min. After centrifugation at 7000×g for 5 min at 4 °C, the supernatant was collected and then dried using a centrifugal evaporator, dissolved the dried residue in 80 μL of the initial mobile phase of LC, and recentrifuged at 7000×g for 5 min at 4 °C. Finally, a 5 μL aliquot of the supernatant was injected into the LC–HRMS system and analyzed in both positive and negative ion modes.
We interfaced the Acquity Ultra-Performance Liquid Chromatography System (Waters) to a Xevo G2-XS quadrupole time-of-flight MS system (Waters) equipped with an electrospray ionization probe in sensitivity mode. All ions within m/z = 50–1000 were acquired by the MS^E method (data-independent acquisition). […] We created two acquisition functions with different collision energies: a low-energy function with 6 eV collision energy and a high-energy function with 15–40 eV collision energy. The mass spectrometer resolution was set at more than 20,000.

For `COc1cc(/C=C/COC(=O)/C=C/c2ccc(O)c(OC)c2)ccc1O` [Coniferyl ferulate], the “Plasma collected 1 h postadministration (detection)” value (oral Cnidii Rhizoma 1 g/kg) was “++ (The number of + signs represent the sample number in which the ingredient was detected in the plasma after administration of each constituent crude drug of shimotsuto (n = 2 per sampling time per crude drug))” and the “Plasma collected 10 h postadministration (detection)” value (oral Cnidii Rhizoma 1 g/kg) was “+ (The number of + signs represent the sample number in which the ingredient was detected in the plasma after administration of each constituent crude drug of shimotsuto (n = 2 per sampling time per crude drug))”.
In the case of `COc1cc(O)c2c(=O)cc(C)oc2c1` [Eugenin], the “Plasma collected 1 h postadministration (detection)” value (oral Cnidii Rhizoma 1 g/kg) is reported as “++ (The number of + signs represent the sample number in which the ingredient was detected in the plasma after administration of each constituent crude drug of shimotsuto (n = 2 per sampling time per crude drug))” and the “Plasma collected 10 h postadministration (detection)” value (oral Cnidii Rhizoma 1 g/kg) is reported as “Not detected”.
In the case of `O.Oc1cc(O)c2c(c1)O[C@H](c1ccc(O)c(O)c1)[C@@H](O)C2` [Catechin], the “Plasma collected 1 h postadministration (detection)” value (oral Paeoniae Radix 1 g/kg) is reported as “++ (The number of + signs represent the sample number in which the ingredient was detected in the plasma after administration of each constituent crude drug of shimotsuto (n = 2 per sampling time per crude drug))” and the “Plasma collected 10 h postadministration (detection)” value (oral Paeoniae Radix 1 g/kg) is reported as “Not detected”.
In the case of `CCCC=C1OC(=O)c2ccccc21` [3-Butylidenephthalide], the “Plasma collected 1 h postadministration (detection)” value (oral Cnidii Rhizoma 1 g/kg) is reported as “++ (The number of + signs represent the sample number in which the ingredient was detected in the plasma after administration of each constituent crude drug of shimotsuto (n = 2 per sampling time per crude drug))” and the “Plasma collected 10 h postadministration (detection)” value (oral Cnidii Rhizoma 1 g/kg) is reported as “Not detected”.
